The subject of one data set is HEK293 cells. The experiment in a line: Cell viability and toxicity (CellTiter-Glo). The format is cell-based. Particulars: at concentrations greater than 2 μg/mL. Here is the method:
HEK293 cells were plated at 20 k cells/well and exposed to vehicle (DMSO), digitonin (positive control for cell death), or JRW-0344 for 10 min/30 min/120 min/240 min/or 18 hrs. CellTiter-Glo (Promega Corp.) was added, and luminescence measured.
In general terms: ATP-based viability assays read luminescence as a measure of living cells.

In the next data set the test system is Nluc enzyme. Put plainly: Multiplex RealTime-Glo / Caspase-Glo 3/7 in MCF7 cells. The format is cell-based. The protocol: (§1) A) In a Corning 3570 assay plate, MCF7 cells were plated at 1,000 cells/well in 20 μL of cell culture media (EMEM supplemented with 0.01 mg/mL human recombinant insulin and 10% fetal bovine serum) and incubated in overnight. 10 μL of 4× REALTIME-GLO™ MT Cell Viability reagents (Promega Corporation) in media or 10 μL media only was added to the cells. 10 μL of 40 μM staurosporine in media or 10 μL media only (control) was added to the cells. The cells were incubated, and caspase activation monitored at 5.5 hrs post-reagent addition. To monitor caspase activation, 40 μL CASPASE-GLO® 3/7 Assay Reagent (Promega Corporation), either on its own (Caspase) or with 200 μM of JRW-0004, JRW-0013, or JRW-0042, was added. Reactions were incubated at RT, and luminescence was measured at 1 hr 10 min post-reagent addition on Tecan M1000 Pro plate reader.
(§2) When comparing the signal generated from the CASPASE-GLO® reagent in media only versus the signal generated in media containing REALTIME-GLO™ reagent, the signal is higher in the multiplex reaction.

The next data set addresses Nluc (Oplophorus gracilirostris, UniProt Q9GV45, A31E/A60N/A81I/F95D/I117V/K70R/L54V/L99Q/M102K/N193R/P142E/Q151K/Q38R/Q45L/V71I/Y165I). The data set is described as above. The class given is cell-based. Details: purchased Promega Corporation. Here is the method: as §1, §2
In another data set the target is T1, purified Nluc enzyme (Oplophorus gracilirostris, UniProt Q9GV45, A31E/A60N/A81I/F95D/I117V/K70R/L54V/L99Q/M102K/N193R/P142E/Q151K/Q38R/Q45L/V71I/Y165I).
T1 construct: purchased Promega Corporation
T1 sequence (Q9GV45 28-196 with tags or gaps with the stated changes limits assumed): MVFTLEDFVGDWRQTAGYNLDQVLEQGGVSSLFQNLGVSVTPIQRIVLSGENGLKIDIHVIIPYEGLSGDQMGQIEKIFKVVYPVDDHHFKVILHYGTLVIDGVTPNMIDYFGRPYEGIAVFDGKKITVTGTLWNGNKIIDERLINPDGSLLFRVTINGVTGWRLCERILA
The format is biochemical. Particulars: titration up to 100 μM final; RT 2 hrs; pro-substrate PBI-4442 + DTT. The protocol: In a Corning 3570 assay plate, purified Nluc enzyme (Promega Corporation), 20 mM DTT, and an Nluc pro-substrate (PBI-4442, which is described in US Patent Publication No. 2013/0130289), which is converted to an Nluc substrate upon reduction with DTT, was added. Compound titrations of JRW-0004, JRW-0013, JRW-0006, JRW-0042, JRW-0138, and JRW-0147 were then made (1:2 serial dilution in PBS, 11 points plus no inhibitor control, starting at 200 μM; 100 μM final concentration in reaction). Compound titrations were added in equal volume to the wells of the assay plate. The reactions were incubated at RT for 2 hrs, and luminescence was measured on Tecan M1000 Pro plate reader. Half-maximal inhibitor (thienopyrrole compound) concentrations (IC50s) were determined using GraphPad Prism 6.03.

In data set [1] the test system is firefly luciferase, e.g., ULTRAGLO® luciferase. The experiment in a line: Specificity of inhibition: firefly luciferase activity. The class given is biochemical. The settings on record: 1 μM luciferin in Luciferase Detection Reagent; RT 2 hrs. The protocol:
The following example describes the specificity of disclosed thienopyrrole compounds, JRW-0004, JRW-0013, JRW-0006, JRW-0042, JRW-0138, and JRW-0147, to inhibit Nluc luciferase activity versus firefly luciferase activity, e.g., ULTRAGLO® luciferase. In a Corning 3570 assay plate, a solution containing 1 μM luciferin in Luciferase Detection Reagent (Promega Corporation V865/859) was added to the assay wells. An equal volume of titrations the thienopyrrole compounds, JRW-0004, JRW-0013, JRW-0006, JRW-0042, JRW-0138, and JRW-0147 were then added to the wells. The reactions were incubated at RT for 2 hrs, and luminescence was measured on Tecan M1000 Pro plate reader.

The target of the next data set is NANOLUC® enzyme (Oplophorus gracilirostris, UniProt Q9GV45, A31E/A60N/A81I/F95D/I117V/K70R/L54V/L99Q/M102K/N193R/P142E/Q151K/Q38R/Q45L/V71I/Y165I). Put plainly: Inhibitor IC50 determination (NANOLUC enzyme, furimazine). The format is biochemical. The settings on record: IC50 (uM), 0.4 ng/ml NANOLUC enzyme, final furimazine 10 uM (at Km).
NANOLUC® enzyme, sequence (Q9GV45 28-196 with tags or gaps with the stated changes limits assumed): as above
Data set [2] relates to Beta-2 Adrenergic Receptor-Nluc (B2AR-Nluc) fusion protein. Put plainly: Cell permeability, B2AR-Nluc in HEK293 or HeLa cells -/+ digitonin. The format is cell-based. Here is the method: HEK293 or HeLa cells were transiently transfected with Beta-2 Adrenergic Receptor-Nluc (B2AR-Nluc) fusion protein to anchor and orient Nluc cytosolically. 24 hrs post-transfection, cells were treated with −/+50 μg/mL digitonin to emulate a live and lytic scenario, respectively. Then, intact cells and permeabilized cells were exposed to a compound response curve of thienopyrrole compound up to 2 hrs. 10 μM furimazine (Promega Corp.) was added, and luminescence was measured. If a thienopyrrole compound (inhibitor) was permeable, the dose-response curves for both live and permeabilized cells overlapped. However, if a thienopyrrole compound was impermeable, the EC50 was right-shifted in the live cells relative to the permeabilized cells.

Data set [3] deals with B2AR-Nluc or Nluc-B2AR fusion protein. Put plainly: Cell permeability with bioluminescent imaging (HeLa, B2AR-Nluc / Nluc-B2AR). The class given is cell-based. The settings on record: 30 μM compound, 10 μM furimazine. Here is the method:
HeLa cells were transiently transfected with Beta-2 Adrenergic Receptor-Nluc (B2AR-Nluc; C-Terminus Nluc) or Nluc-Beta-2 Adrenergic Receptor (Nluc-B2AR; N-terminus Nluc) fusion protein to anchor and orient Nluc intracellularly or extracellularly, respectively. 24 hrs post-transfection, cells were treated with −/+30 μM of a thienopyrrole compound, JRW-0147, JRW-0051, and JRW-0138. 10 μM furimazine was added, and luminescence was detected by imaging on the Olympus LV200.

The target of data set [4] is T2, purified Nluc (extracellular); Nluc-HALOTAG fusion protein (intracellular) (Oplophorus gracilirostris, UniProt Q9GV45, A31E/A60N/A81I/F95D/I117V/K70R/L54V/L99Q/M102K/N193R/P142E/Q151K/Q38R/Q45L/V71I/Y165I).
T2 construct: expressed in transfected cells; host or cells: HEK293 (Nluc-HaloTag); purified Nluc added from outside
T2 sequence (Q9GV45 28-196 with tags or gaps with the stated changes limits assumed): as above
The experiment in a line: Inhibition of extracellular luciferase activity and enhancement of intracellular BRET. The class given is cell-based. Particulars: HEK293 Nluc-HALOTAG + NANOBRET 618; 10 ng/mL extracellular purified Nluc; 2 hrs. The protocol: HEK293 were transiently transfected with Nluc-HALOTAG fusion protein to orient Nluc-HALOTAG inside the cell. 24 hrs post-transfection, cells were labeled with NANOBRET 618 ligand to simulate specific intracellular BRET. Cells were then treated 10 ng/mL purified Nluc to simulate spurious extracellular luminescence. Cells were exposed to a compound response curve of the thienopyrrole compounds, JRW-0013, JRW-0051, JRW-0147, and JRW-0187, for 2 hrs. 10 μM furimazine was added, and the BRET ratio 610/450 nm was measured.
A general note: BRET reads energy transfer from a luciferase to a nearby fluorophore.

For data set [5], the system named is Nluc-HALOTAG labeled with NANOBRET 618 ligand. Put plainly: Inhibition of extracellular BRET. The format is cell-based. The settings on record: HEK293 Nluc-HDAC6; 10 ng/mL extracellular Nluc-HALOTAG/NANOBRET 618; 2 hrs. The protocol: HEK293 were transiently transfected with an Nluc-HDAC6 fusion protein to orient Nluc-HDAC6 inside the cell. 24 hrs post-transfection, cells were treated 10 ng/mL purified Nluc-HALOTAG labeled with NANOBRET 618 ligand to simulate spurious extracellular BRET. Cells were then exposed to a compound response curve of the thienopyrrole compounds, JRW-0013, JRW-0051, JRW-0147, and JRW-0187, for 2 hrs. 10 μM furimazine was then added, and BRET ratio 610/450 nm was measured.

The mark [6] stands for this setting: 10 μM Stauro vs Control, 200 μM compound.
Where [7] appears, read: CASPASE-GLO 3/7 reagent with 200 μM compound, 1 hr 10 min.

The structures appear in SMILES notation. “Also recorded” adds a separate entry of the source.

This note sets out measurements from US10513694B2, “Thienopyrrole compounds and uses thereof” (PROMEGA CORPORATION, priority 2015, dated 2019).

One may read the IC50 as the midpoint of a concentration-inhibition curve. A higher IC50 goes with lower potency.

Nluc, sequence (Q9GV45 28-196 with tags or gaps with the stated changes limits assumed): as above

With `C[C@@H]1CC[C@@]2(OC1)O[C@H]1[C@@H](O)[C@H]3[C@@H]4CC[C@H]5C[C@@H](O[C@@H]6O[C@H](CO)[C@H](O[C@@H]7O[C@H](CO)[C@@H](O)[C@H](O[C@@H]8OC[C@@H](O)[C@H](O)[C@H]8O)[C@H]7O[C@@H]7O[C@H](CO)[C@H](O)[C@H](O[C@@H]8O[C@H](CO)[C@@H](O)[C@H](O)[C@H]8O)[C@H]7O)[C@H](O)[C@H]6O)[C@H](O)C[C@]5(C)[C@H]4CC[C@]3(C)[C@H]1[C@@H]2C` [Digitonin, reference compound], the “Cell death (FIG. 18B)” value with HEK293 cells is “almost complete death”.
As to `CCCCNC(=O)[C@H]1CC[C@H](NC(=O)c2cc3sccc3n2CC(=O)N(CC)c2cccc(C)c2)CC1` [JRW-0042, N-(trans-4-(butylcarbamoyl)cyclohexyl)-4-(2-(ethyl(m-tolyl)amino)-2-oxoethyl)-4H-thieno[3,2-b]pyrrole-5-carboxamide], in the data set on Nluc enzyme (setting [6]), the “Fold Cont, Media only” value is 5.81. Besides, in the data set with Nluc enzyme (setting [7]), the “Avg (luminescence), Media only, 10 μM Stauro” value was 62280 and the “Avg (luminescence), Media only, Control” value is recorded as 10718. For the same molecule, the “Fold Cont, Media containing RealTime-Glo” value on Nluc (setting [6]) is given as 5.05. Further, on Nluc (setting [7]), the “Avg (luminescence), Media containing RealTime-Glo, 10 μM Stauro” value is 53956 and the “Avg (luminescence), Media containing RealTime-Glo, Control” value was determined as 10679. At purified Nluc enzyme, the “Inhibition of purified Nluc enzyme (FIG. 2)” value is given as “capable of inhibiting purified Nluc enzyme”. Also, in [1], the “Inhibition of firefly luciferase activity (FIG. 3)” value is “do not inhibit firefly luciferase activity; also recorded: did not inhibit the firefly luciferase activity”. On NANOLUC® enzyme, this molecule displayed an IC50 of 0.31 µM.
Regarding `CCN(C(=O)Cn1c(C(=O)N[C@H]2CC[C@H](C(=O)NCCCC(=O)O)CC2)cc2sccc21)c1cccc(C)c1` [JRW-0051, 4-(trans-4-(4-(2-(ethyl(m-tolyl)amino)-2-oxoethyl)-4H-thieno[3,2-b]pyrrole-5-carboxamido)cyclohexane-1-carboxamido)butanoic acid], the Cell permeability entry in [2] is listed as “cell-impermeable”. Also, in [3], the “Permeability and inhibition of extracellular / intracellular Nluc by imaging (FIG. 14)” value is “impermeable and inhibited extracellular Nluc and enhanced intracellular Nluc”. The “BRET ratio 610/450 nm across compound dose-response curve (FIGS. 13B-13E)” value in data set [4] is “intracellular BRET ratio was enhanced”. Moreover, the IC50 at NANOLUC® enzyme came to 0.74 µM. Also, the “BRET ratio 610/450 nm across compound dose-response curve (FIGS. 12B-12E)” value in data set [5] was “BRET ratio decreased”.
As to `CCCCCCNC(=O)[C@H]1CC[C@H](NC(=O)c2cc3sccc3n2CC(=O)N(CC)c2cccc(C)c2)CC1` [JRW-0138, 4-(2-(ethyl(m-tolyl)amino)-2-oxoethyl)-N-(trans-4-(hexylcarbamoyl)cyclohexyl)-4H-thieno[3,2-b]pyrrole-5-carboxamide], the Cell permeability entry in data set [2] is on record as “cell-permeable”. The “Permeability and inhibition of extracellular / intracellular Nluc by imaging (FIG. 14)” value in data set [3] is “cell permeable and inhibited both intracellular and extracellular Nluc”. The “Inhibition of purified Nluc enzyme (FIG. 2)” value at purified Nluc enzyme is “capable of inhibiting purified Nluc enzyme”. The “Inhibition of firefly luciferase activity (FIG. 3)” value in [1] is listed as “do not inhibit firefly luciferase activity; also recorded: did not inhibit the firefly luciferase activity”. For the same molecule, the IC50 against NANOLUC® enzyme is 0.13 µM.
Turning to `CCN(C(=O)Cn1c(C(=O)N[C@H]2CC[C@H](C(=O)N3CCC(C(=O)O)CC3)CC2)cc2sccc21)c1cccc(C)c1` [JRW-0187, 1-(trans-4-(4-(2-(ethyl(m-tolyl)amino)-2-oxoethyl)-4H-thieno[3,2-b]pyrrole-5-carboxamido)cyclohexane-1-carbonyl)piperidine-4-carboxylic acid], the Cell permeability entry in [2] was “cell-impermeable”. Moreover, the “BRET ratio 610/450 nm across compound dose-response curve (FIGS. 13B-13E)” value in data set [4] is reported as “intracellular BRET ratio was enhanced”. For the same molecule, the “BRET ratio 610/450 nm across compound dose-response curve (FIGS. 12B-12E)” value in [5] is given as “BRET ratio decreased”.
